The test system of data set [1] is bulbectomized (BE) mice. As to the kind of experiment: Morris water maze spatial memory test, bulbectomized mice immunized with NP-1 / R-1-NP-1 in IFA (Example 1). The class given is in vivo, NMRI mice. The conditions noted are these: for Ratio of sector visits to total number of all visits, sector 1 / Ratio of sector visits to total number of all visits, sector 2 / Ratio of sector visits to total number of all visits, sector 3 (training sector with platform) / Ratio of sector visits to total number of all visits, sector 4 / Time spent in sector 1 / Time spent in sector 2 / Time spent in sector 3 (training sector with platform) / Time spent in sector 4: BE (bulbectomized) mice, 4 immunizations with IFA, 1 min memory test; for Effect of immunization on spatial memory of BE mice (in words): immunization with IFA, no complete Freund's adjuvant. The procedure:
The immunization was carried out in four stages.
This method enables separate evaluation of learning and memory.

Data set [2] has as its system β-amyloid (1-40). The data set is described as follows: ELISA of β-amyloid (1-40) in brain (cortex+hippocampus) of bulbectomized immunized mice. The conditions noted are these: for Average level of βA / Individual levels of βA: BE (bulbectomized) mice, cortex+hippocampus; for Individual levels of βA: one value per mouse. The data set is classed as in vivo, NMRI mice.
Procedure: (§1) To collect brain structures to determine the biochemical level of β-amyloid, mice were decapitated and the brain was removed in the cold. The cortex was removed by scalpel from both hemispheres, the hippocampus was bilaterally removed, the probes were placed in labeled plastic test tubes that were frozen at −80° C. and stored in a freezer until the biochemical study of the level of β-amyloid.
(§2) Biochemical identification of β-amyloid (1-40) by enzyme immunoassay was performed as follows: samples of the cortex and hippocampus, which were stored at −80° C. after collection, were weighed, thawed at room temperature, and then homogenized in a solution of 2% CHAPS 20 mM Tris-HCl (pH 7.7) in the presence of protease inhibitors (10 μg/ml leupeptin, 10 μg/ml aprotinin and 10 μg/ml AEBSF) in a volume calculated for each sample (4 ml of solution per 1 g of tissue), using a RT-12 tissue microgrinder in a glass beaker for the homogenization using a ground-glass pestle. Homogenates were centrifuged at 21,000 g at 4° C. for 30 min. Selected supernatants were stored at −80° C. and thawed immediately prior to the immunoassay analysis.
Another part of the samples were homogenized in 5 M guanidine-HCl solution of 50 mM Tris-HCl (pH 8.0), in a volume calculated for each sample (400 mcl of solution per 50 mg of tissue). The samples were stirred for 3-4 hours at room temperature, then diluted in BSAT-DPBS (5% BSA, 0.03% Tween-20) buffer, centrifuged at 21,000 g at 4° C. for 30 min, after which the supernatants were collected.
The immunosorbent assay was performed using the instructions on the ELISA for the determination of β-amyloid (1-40) (Aβ40) mouse (ELISA kit mouse Aβ40, Invitrogen).
After testing the memory of all groups of animals, brain perfusion was carried out in the cold under deep anaesthesia, and individual samples of brain tissue (cortex+hippocampus) were collected, which were stored in a freezer at a temperature of −80° C. until biochemical studies.
The test system of another data set is sham operated (SO) mice. The conditions noted are these: mouse, in vivo.
Data set [3] deals with β-amyloid (1-40). As to conditions: mouse, in vivo.
Procedure: as §1, §2
Another part of the samples were homogenized in 5 M guanidine-HCl solution of 50 mM Tris-HCl (pH 8.0), in a volume calculated for each sample (400 mcl of solution per 50 mg of tissue). […]
For data set [4], the system named is animals with experimentally induced AD. As to conditions: cited from earlier work.
The next data set has as its system bulbectomized mice. The data set is described as follows: Morris water maze spatial memory test, bulbectomized mice immunized with (FR-3-NP-1)2-Lys-OH / (R-2-FR-3-NP-1)2-Lys-OH in IFA (Example 3). The data set is classed as in vivo, NMRI mice. The conditions noted are these: four immunizations with IFA; for Number of visits to the training/rescue compartment (in words) / Time spent in the training/rescue compartment (in words): BE mice. The procedure:
Immunization was carried out in four stages.
Each group consisted of 5-8 mice.

The test system of data set [5] is bulbectomized (BE) mice. The data set is described as follows: Morris water maze spatial memory test, bulbectomized mice immunized with KLH conjugates of NP-1 fragments (Example 2). The class given is in vivo, NMRI mice. The conditions noted are these: KLH conjugate, 1st immunization CFA, 2nd IFA, 0.1 mg/mouse. The procedure: NMRI mice (see Example 1) were immunized with peptides conjugated to snail keyhole limpet hemocyanin (KLH).
In this study, a scheme with a double introduction of peptides into mice with complete Freund's adjuvant (CFA) for the first immunization and incomplete Freund's adjuvant (IFA) for the second immunization was used. Between the first and second immunization a bulbectomy was performed. After the second immunization, one month after bulbectomy, the mice's state of spatial memory was tested, after which the mice were put down and their blood and cerebrospinal fluid were collected to determine their level of antipeptide antibodies.
To prepare the peptide conjugates with KLH, 0.75 mg of peptide was dissolved in 0.65 ml of KLH in PBS with a protein concentration of 5.8 mg/ml and stirred for an hour while adding 38 μl of 2.5% glutaraldehyde solution in PBS. The resulting solution was stirred for 15 hours and dialyzed against PBS for 20 hours.
Tables 12 and 13 present the results of statistical analysis of spatial memory test data using univariate analysis (one-way ANOVA), to judge the ability of the animal to distinguish sections of the Morris water maze.

“And” between values parts separate entries of the source, which are not always exact repeats. Equal values may be shown once. “Also recorded” adds a separate entry of the source. Read-outs that look alike come from different tables or passages of the source. No end group written: not given here.

We go through 7 substances from US9718869B2, “Peptide-based compounds and uses thereof to treat beta-amyloid accumulation” (MANUS PHARMACEUTICALS (CANADA) LTD., priority 2012, dated 2017).

Procedure for sham operated (SO) mice: Experiments were performed on NMRI mice weighing 20-30 g. Initiation of Alzheimer's type neurodegenerative process was caused by the removal of the animal's olfactory bulb (bulbectomy). The operation was performed under sterile conditions under nembutal anesthesia (40 mg/kg). For local anaesthesia during scalping, a subcutaneous injection of 0.5% solution of novocaine was used. […] A group of animals to serve as control was sham-operated (SO); these animals were subjected to the same procedure but without removal of the olfactory bulbs. After surgery all animals were injected with “Bitsillin 5” antibiotic into the muscles of the hind paw at a dose of 6000 units for the prevention of infection. Upon completion of behavioral experiments, morphological studies of animal brains were conducted to ensure complete removal of olfactory bulbs.
The state of spatial memory was assessed after mice had developed spatial skills in the Morris water maze, which combines training in the formation of active avoidance and the ability to navigate in space. This method enables separate evaluation of learning and memory.
The experimental chamber was a plastic pool of dimensions 100×60×30 cm, filled with water at a temperature of 23 degrees Celsius. […] The water was clouded with milk so that animals could not visually detect the rescue platform.
All mice were pre-tested for the ability to swim and absence of an original sector preference in the water maze. The goal of the education was to have mice in one minute find the underwater platform and remember its location. Training was conducted in four sessions every day for five days, and the latency period for finding the platform was recorded for every session. 24 hours after completion of training, the level of the animal's spatial memory in the absence of a rescue platform was tested for one minute. Two indicators were used in analyzing the results: the number of visits to each sector of the maze and time spent in each sector.
Two-factor analysis (general ANOVA) was used for statistical analysis of behavioral data. Post-hoc analysis was performed using the criterion of LSD (least significant difference). The reliability of the results was also evaluated using two-tailed Student's t-test.

Consider “cyclo(Ala-Glu)-Trp-(Glu-Trp-Asp-Leu-Val-Gly-Ile-Pro-Gly-Lys-Arg-Ser-Glu-Arg-Phe-Tyr-Cys-Cys-Lys-Glu) ({cyclo(Ala-Glu)}-WEWDLVGIPGKRSERFYCCKE; cysteine pairing not given here) [R-1-NP-1]”, for which, in the data set with bulbectomized (BE) mice [1], the “Ratio of sector visits to total number of all visits, sector 1” value (“Ratio of sector visits … sector 1” for short) stood at 20.67 ± 2.2 percentage; the “Ratio of sector visits to total number of all visits, sector 2” value (“Ratio of sector visits … sector 2” below) came to 27 ± 1.46 percentage; the “Ratio of sector visits to total number of all visits, sector 3 (training sector with platform)” value (shortened to “Ratio … (training sector with platform)”) worked out at 34.33 ± 2.44 percentage; the “Ratio of sector visits to total number of all visits, sector 4” value (shortened to “Ratio of sector visits … sector 4”) amounted to 18.17 ± 1.49 percentage. Moreover, in the data set with bulbectomized (BE) mice [1], the “Time spent in sector 1” value amounted to 12.17 ± 2.06 s, the “Time spent in sector 2” value worked out at 13.67 ± 1.5 s, the “Time spent in sector 3 (training sector with platform)” value turned out to be 25.33 ± 4.02 s and the “Time spent in sector 4” value worked out at 8.83 ± 1.85 s. The “Effect of immunization on spatial memory of BE mice (in words)” value (“Effect of immunization” for short) in the data set on bulbectomized (BE) mice [1] is “showed improvement of spatial memory; also recorded: resulted in improved memory; also recorded: protects the spatial memory; also recorded: led to memory protection”. Moreover, in the data set on β-amyloid (1-40) [2], the “Change of βA level versus non-immunized BE mice (in words)” value is “significant reduction of β-amyloid”; the “Average level of βA” value worked out at 2.985 ± 0.2 ng/g tissue; the “Individual levels of βA” value is 2.525 ng/g tissue and 3.704 ng/g tissue and 3.705 ng/g tissue and 2.398 ng/g tissue and 2.91 ng/g tissue and 2.77 ng/g tissue and 2.882 ng/g tissue. For the same substance, in the data set with sham operated (SO) mice, the “Ratio of sector visits … sector 1” value came out at 12.4 ± 2.7 percentage; the “Ratio of sector visits … sector 2” value is given as 26 ± 2.86 percentage; the “Ratio … (training sector with platform)” value was 40 ± 2.19 percentage; the “Ratio of sector visits … sector 4” value is on record as 22.2 ± 3.18 percentage. Also, in the data set with sham operated (SO) mice, the “Time spent in sector 1” value stood at 7.2 ± 1.83 s, the “Time spent in sector 2” value came out at 14 ± 2.43 s, the “Time spent in sector 3 (training sector with platform)” value amounted to 30.41 ± 2.42 s and the “Time spent in sector 4” value was 8.4 ± 1.96 s. In addition, the “Average level of βA” value in the data set with β-amyloid (1-40) [3] was found to be 2.78 ± 0.21 ng/g tissue.
On to “EWDLVGIPGKRSERFYECCKE (cysteine pairing not given here) [NP-1, 2372355, reference compound]”, for which, in the data set on bulbectomized (BE) mice [1], the “Ratio of sector visits … sector 1” value is given as 26.6 ± 1.54 percentage; the “Ratio of sector visits … sector 2” value worked out at 27.8 ± 2.06 percentage; the “Ratio … (training sector with platform)” value is recorded as 24.2 ± 0.49 percentage; the “Ratio of sector visits … sector 4” value was 21.2 ± 1.6 percentage. Besides, in the data set with bulbectomized (BE) mice [1], the “Time spent in sector 1” value is 17 ± 0.84 s, the “Time spent in sector 2” value was 15.2 ± 1.69 s, the “Time spent in sector 3 (training sector with platform)” value is 16 ± 11.14 s and the “Time spent in sector 4” value stood at 11.8 ± 1.91 s. The “Effect of immunization” value in the data set on bulbectomized (BE) mice [1] is on record as “not capable of recalling the training sector; also recorded: did not improve their memory; also recorded: did not show protective activity; also recorded: did not exhibit memory protection”. Also, in the data set on β-amyloid (1-40) [2], the “Change of βA level versus non-immunized BE mice (in words)” value is recorded as “significant reduction of β-amyloid”; the “Average level of βA” value is given as 2.44 ± 0.38 ng/g tissue; the “Individual levels of βA” value is 3.039 ng/g tissue and 2.316 ng/g tissue and 3.324 ng/g tissue and 1.115 ng/g tissue and 2.408 ng/g tissue. In the data set with sham operated (SO) mice, the “Ratio of sector visits … sector 1” value is given as 14.5 ± 1.89 percentage; the “Ratio of sector visits … sector 2” value was found to be 27.5 ± 2.1 percentage; the “Ratio … (training sector with platform)” value came to 40.75 ± 3.15 percentage; the “Ratio of sector visits … sector 4” value is reported as 18 ± 2.08 percentage. Also, in the data set on sham operated (SO) mice, the “Time spent in sector 1” value was found to be 10.5 ± 2.25 s, the “Time spent in sector 2” value was 13 ± 1.68 s, the “Time spent in sector 3 (training sector with platform)” value was 27.5 ± 1.5 s and the “Time spent in sector 4” value turned out to be 9 ± 1.58 s. Besides, the “Average level of βA” value in the data set on β-amyloid (1-40) [3] came to 3.22 ± 0.38 ng/g tissue. In addition, in data set [4] (animals with experimentally induced AD), the “Brain levels of βA (in words)” value is on record as “prevented an increase in brain levels of βA”. In data set [4] (in vivo), the “Antibodies produced by immunization (in words)” value is given as “produced antibodies capable of binding to the type α7 AChRs” and the “Spatial memory in healthy animals (in words)” value was “did not lead to deterioration of spatial memory”.
Regarding “Ser-Glu-Arg-Phe-Tyr-Glu-Cys-Cys-Lys-Glu-Lys(Ser-Glu-Arg-Phe-Tyr-Glu-Cys-Cys-Lys-Glu)-OH [(FR-3-NP-1)2-Lys-OH]”, in the data set on bulbectomized mice, the “Number of visits to the training/rescue compartment (in words)” value is recorded as “much worse”, the “Time spent in the training/rescue compartment (in words)” value is listed as “much worse” and the “Effect of immunization” value is “only a slight tendency towards improvement of spatial memory”.
On to “SERFYECCKE (cysteine pairing not given here) [FR-3-NP-1]”, for which, in the data set on bulbectomized (BE) mice [5], the “Ratio of sector visits … sector 1” value is given as 20.75 ± 1.25 percentage; the “Ratio of sector visits … sector 2” value came to 26.25 ± 2.95 percentage; the “Ratio … (training sector with platform)” value was found to be 32.0 ± 4.3 percentage; the “Ratio of sector visits … sector 4” value was 21.0 ± 2.38 percentage. For the same substance, in the data set with bulbectomized (BE) mice [5], the “Time spent in sector 1” value came out at 13.0 ± 1.91 s, the “Time spent in sector 2” value came to 13.75 ± 2.1 s, the “Time spent in sector 3 (training sector with platform)” value came to 25.25 ± 3.47 s and the “Time spent in sector 4” value was determined as 8.0 ± 1.58 s.
Turning to “(cyclo(Ala-Glu)(Trp-Ser-Glu-Arg-Phe-Tyr-Glu-Cys-Cys-Lys-Glu))2-Lys-OH ({cyclo(Ala-Glu)}-WSERFYECCKEK-OH; cysteine pairing not given here; also: dimer: two chains joined on Lys-OH) [(R-2-FR-3-NP-1)2-Lys-OH]”, in the data set with bulbectomized mice, the “Number of visits to the training/rescue compartment (in words)” value is “preferred the second and third compartments”; the “Time spent in the training/rescue compartment (in words)” value was “selected the third compartment with statistical significance”.
For IPGKRSERFY [FR-2-NP-1], in the data set with bulbectomized (BE) mice [5], the “Ratio of sector visits … sector 1” value was 17.17 ± 2.32 percentage; the “Ratio of sector visits … sector 2” value was 34.5 ± 2.05 percentage; the “Ratio … (training sector with platform)” value is given as 35.51 ± 2.64 percentage; the “Ratio of sector visits … sector 4” value worked out at 13.67 ± 2.53 percentage. Moreover, in the data set on bulbectomized (BE) mice [5], the “Time spent in sector 1” value turned out to be 12.33 ± 2.38 s, the “Time spent in sector 2” value is 18.33 ± 1.82 s, the “Time spent in sector 3 (training sector with platform)” value was 20.1 ± 1.86 s and the “Time spent in sector 4” value came to 8.33 ± 1.98 s.
Regarding EWDLVGIPGKRSERFY [FR-1-NP-1], in the data set with bulbectomized (BE) mice [5], the “Ratio of sector visits … sector 1” value is 22.17 ± 2.63 percentage; the “Ratio of sector visits … sector 2” value is 30.17 ± 1.49 percentage; the “Ratio … (training sector with platform)” value was 30.83 ± 2.32 percentage; the “Ratio of sector visits … sector 4” value is 18.33 ± 1.74 percentage. In the data set on bulbectomized (BE) mice [5], the “Time spent in sector 1” value turned out to be 15.83 ± 2.88 s, the “Time spent in sector 2” value came out at 17.0 ± 2.21 s, the “Time spent in sector 3 (training sector with platform)” value is 18.33 ± 2.04 s and the “Time spent in sector 4” value turned out to be 8.83 ± 0.7 s.
